Test results published in patent US9814699B2, “Chemical compounds” (Janssen Pharmaceuticals, Inc., priority 2009, dated 2017).

Key:
[1] = test system: HCV genotype 1a subgenomic replicon; assay: HCV replicon assay, genotype 1a subgenomic replicon (luciferase); assay type: cell-based; details: Hepatitis C virus; genotype 1a replicon stable cell line, luciferase activity measured 48 hours later; read-out: Replicon 1A pEC50 (converted)
Experimental: (§1) Protocol for Testing and Data Analysis of Compounds in the HCV Replicon Assay
(§2) Compounds were assayed for activity against HCV using the genotype 1a and 1b subgenomic replicon model systems. Stable cell lines bearing the genotype 1a and 1b replicons were used for screening of compounds. Both replicons are bicistronic and contain the firefly luciferase gene. The ET cell line is stably transfected with RNA transcripts harboring a I389luc-ubi-neo/NS3-3′/ET replicon with firefly luciferase-ubiquitin-neomycin phosphotransferase fusion protein and EMCV-IRES driven NS3-5B polyprotein containing the cell culture adaptive mutations (E1202G; T1280I; K1846T) (Krieger at al, 2001 and unpublished). The genotype 1a replicon is a stable cell line licensed from Apath LLC, modified to contain the firefly luciferase gene. The cells were grown in DMEM, supplemented with 10% fetal calf serum, 2 mM Glutamine, Penicillin (100 IU/mL)/Streptomycin (100 μg/mL), 1× nonessential amino acids, and 250-500 μg/mL G418 (“Geneticin”). They were all available through Life Technologies (Bethesda, Md.). The cells were plated at 5×10^3 cells/well in 384 well plates containing compounds. The final concentration of compounds ranged between 0.03 pM to 50 μm and the final DMSO concentration of 0.5-1%.
(§3) Luciferase activity was measured 48 hours later by adding a Steady glo reagent (Promega, Madison, Wis.). Percent inhibition of replication data was plotted relative to no compound control. Under the same condition, cytotoxicity of the compounds was determined using cell titer glo (Promega, Madison, Ws). EC50s were determined from an 11 point dose response curve using 3-4-fold serial dilution for each compound, which spans a concentration range >1000 fold. The level of inhibition for each compound was determined with Activity Base or with BioAssay plus the Excel XC50 module. Percent inhibition was determined with the following equation where the cross-talk corrected value is the value from the test well, the compound positive control mean is the average value of the wells with no compound present, and the DMSO negative control mean is the average value of the wells with DMSO but no cells present.
(§4) [formula] These normalized values are exported to EC50 where they are plotted against the molar compound concentrations using the standard four parameter logistic equation: […]

[2] = test system: HCV genotype 1b subgenomic replicon; assay: HCV replicon assay, genotype 1b subgenomic replicon (ET cell line, luciferase); assay type: cell-based; details: Hepatitis C virus; genotype 1b replicon ET cell line, luciferase activity measured 48 hours later; read-out: Replicon 1B pEC50 (converted)
Experimental: as §1, §2, §3, §4

Question: COC(=O)N[C@H](C(=O)N1CCC[C@H]1c1ncc(-c2ccc(-c3ccc(-c4cnc([C@@H]5CC6(CN5C(=O)[C@@H](NC(=O)OC)C(C)C)O[C@@H](C)C[C@H](C)O6)[nH]4)cc3)cc2)[nH]1)C(C)C (stereo partly drawn) [Example 1, methyl [(1S)-1-({(2S)-2-[4-(4′-{2-[(3S,7S,9S)-7,9-dimethyl-2-((2S)-3-methyl-2-{[(methyloxy)carbonyl]amino}butanoyl)-6,10-dioxa-2-azaspiro[4.5]dec-3-yl]-1H-imidazol-4-yl}-4-biphenylyl)-1H-imidazol-2-yl]-1-pyrrolidinyl}carbonyl)-2-methylpropyl]carbamate] was tested. Which EC50 [1] did it give?
Answer: 1.58 nM

Question: And the EC50 [2]?
Answer: 0.01 nM

Question: What does the source list for COC(=O)N[C@H](C(=O)N1CCC[C@H]1c1ncc(-c2ccc(-c3ccc(-c4cnc([C@@H]5CC6(CN5C(=O)[C@@H](NC(=O)OC)C(C)C)OCCO6)[nH]4)cc3)cc2)[nH]1)C(C)C [Example 2, methyl [(1S)-2-methyl-1-({(2S)-2-[4-(4′-{2-[(8S)-7-((2S)-3-methyl-2-{[(methyloxy)carbonyl]amino}butanoyl)-1,4-dioxa-7-azaspiro[4.4]non-8-yl]-1H-imidazol-4-yl}-4-biphenylyl)-1H-imidazol-2-yl]-1-pyrrolidinyl}carbonyl)propyl]carbamate]?
Answer: EC50 [1]: 0.0398 nM; EC50 [2]: 0.00794 nM

Question: Which results are given for COC(=O)N[C@H](C(=O)N1CC2(C[C@H]1c1ncc(-c3ccc(-c4ccc(-c5cnc([C@@H]6CC7(CN6C(=O)[C@@H](NC(=O)OC)C(C)C)O[C@@H](C)C[C@H](C)O7)[nH]5)cc4)cc3)[nH]1)O[C@@H](C)C[C@H](C)O2)C(C)C (stereo partly drawn) [Example 3, dimethyl (4,4′-biphenyldiylbis{1H-imidazole-4,2-diyl[(3S,7S,9S)-7,9-dimethyl-6,10-dioxa-2-azaspiro[4.5]decane-3,2-diyl][(2S)-3-methyl-1-oxo-1,2-butanediyl]})biscarbamate]?
Answer: EC50 [1]: 25.1 nM; EC50 [2]: 0.0158 nM

Question: Which EC50 [1] does the source give for COC(=O)N[C@H](C(=O)N1CC2(C[C@H]1c1ncc(-c3ccc(-c4ccc(-c5cnc([C@@H]6CC7(CN6C(=O)[C@@H](NC(=O)OC)C(C)C)OCCO7)[nH]5)cc4)cc3)[nH]1)OCCO2)C(C)C [Example 4, dimethyl (4,4′-biphenyldiylbis{1H-imidazole-4,2-diyl(8S)-1,4-dioxa-7-azaspiro[4.4]nonane-8,7-diyl[(2S)-3-methyl-1-oxo-1,2-butanediyl]})biscarbamate] here?
Answer: 0.0398 nM

Question: And the EC50 [2]?
Answer: 0.01 nM

Question: What does the source list for COC(=O)N[C@@H](C)C(=O)N1CC2(C[C@H]1c1ncc(-c3ccc(-c4ccc(-c5cnc([C@@H]6CCCN6C(=O)[C@@H](NC(=O)OC)C(C)C)[nH]5)cc4)cc3)[nH]1)OCCCO2 [Example 5, methyl ((1S)-1-methyl-2-{(3S)-3-[4-(4′-{2-[(2S)-1-((2S)-3-methyl-2-{[(methyloxy)carbonyl]amino}butanoyl)-2-pyrrolidinyl]-1H-imidazol-4-yl}-4-biphenylyl)-1H-imidazol-2-yl]-6,10-dioxa-2-azaspiro[4.5]dec-2-yl}-2-oxoethyl)carbamate]?
Answer: EC50 [1]: 0.0794 nM; EC50 [2]: 0.02 nM

Question: How did the EC50 [1] turn out when COC(=O)N[C@H](C(=O)N1CCC[C@H]1c1ncc(-c2ccc(-c3ccc(-c4cnc([C@@H]5CC6(CN5C(=O)[C@@H](NC(=O)OC)C(C)C)OCCCO6)[nH]4)cc3)cc2)[nH]1)C(C)C [Example 6, methyl [(1S)-2-methyl-1-({(2S)-2-[4-(4′-{2-[(3S)-2-((2S)-3-methyl-2-{[(methyloxy)carbonyl]amino}butanoyl)-6,10-dioxa-2-azaspiro[4.5]dec-3-yl]-1H-imidazol-4-yl}-4-biphenylyl)-1H-imidazol-2-yl]-1-pyrrolidinyl}carbonyl)propyl]carbamate] was run?
Answer: 0.0251 nM

Question: What about the EC50 [2] of the same compound?
Answer: 0.00794 nM

Question: COC(=O)N[C@H](C(=O)N1CCC[C@H]1c1ncc(-c2ccc(-c3ccc(-c4cnc([C@@H]5CC6(CN5C(=O)[C@@H](NC(=O)OC)C(C)C)OCC(C)(C)CO6)[nH]4)cc3)cc2)[nH]1)C(C)C [Example 7, methyl [(1S)-1-({(2S)-2-[4-(4′-{2-[(3S)-8,8-dimethyl-2-((2S)-3-methyl-2-{[(methyloxy)carbonyl]amino}butanoyl)-6,10-dioxa-2-azaspiro[4.5]dec-3-yl]-1H-imidazol-4-yl}-4-biphenylyl)-1H-imidazol-2-yl]-1-pyrrolidinyl}carbonyl)-2-methylpropyl]carbamate] was tested. Which EC50 [1] did it give?
Answer: 0.794 nM

Question: And the EC50 [2]?
Answer: 0.00251 nM

Question: Which results are given for [2H]C1([2H])OC2(C[C@@H](c3ncc(-c4ccc(-c5ccc(-c6cnc([C@@H]7CCCN7C(=O)[C@@H](NC(=O)OC)C(C)C)[nH]6)cc5)cc4)[nH]3)N(C(=O)[C@@H](NC(=O)OC)C(C)C)C2)OC([2H])([2H])C1([2H])[2H] [Example 8, methyl [(1S)-2-methyl-1-({(2S)-2-[4-(4′-{2-[(3S)-2-((2S)-3-methyl-2-{[(methyloxy)carbonyl]amino}butanoyl)-6,10-dioxa-2-azaspiro[4.5]dec-3-yl]-1H-imidazol-4-yl}-4-biphenylyl)-1H-imidazol-2-yl]-1-pyrrolidinyl}carbonyl)propyl]carbamate-d6]?
Answer: EC50 [1]: 0.0316 nM; EC50 [2]: 0.00794 nM

Question: For [2H]C1([2H])OC2(C[C@@H](c3ncc(-c4ccc(-c5ccc(-c6cnc([C@@H]7CCCN7C(=O)[C@@H](NC(=O)OC)C(C)C)[nH]6)cc5)cc4)[nH]3)N(C(=O)[C@@H](NC(=O)OC)C(C)C)C2)OC1([2H])[2H] [Example 9, methyl [(1S)-2-methyl-1-({(2S)-2-[4-(4′-{2-[(8S)-7-((2S)-3-methyl-2-{[(methyloxy)carbonyl]amino}butanoyl)-1,4-dioxa-7-azaspiro[4.4]non-8-yl]-1H-imidazol-4-yl}-4-biphenylyl)-1H-imidazol-2-yl]-1-pyrrolidinyl}carbonyl)propyl]carbamate-d4], which EC50 [1] is on record?
Answer: 0.0316 nM

Question: And the EC50 [2]?
Answer: 0.00631 nM

Question: Which results are given for COC(=O)N[C@H](C(=O)N1CCC[C@H]1c1ncc(-c2ccc(-c3ccc(-c4cnc([C@@H]5CC6(CN5C(=O)[C@@H](NC(=O)OC)C(C)C)O[C@H](C)[C@@H](C)O6)[nH]4)cc3)cc2)[nH]1)C(C)C [Example 10, methyl [(1S)-1-({(2S)-2-[4-(4′-{2-[(2R,3R,8S)-2,3-dimethyl-7-((2S)-3-methyl-2-{[(methyloxy)carbonyl]amino}butanoyl)-1,4-dioxa-7-azaspiro[4.4]non-8-yl]-1H-imidazol-5-yl}-4-biphenylyl)-1H-imidazol-2-yl]-1-pyrrolidinyl}carbonyl)-2-methylpropyl]carbamate]?
Answer: EC50 [1]: 2 nM; EC50 [2]: 0.01 nM

Question: Which results are given for COC(=O)N[C@H](C(=O)N1CCC[C@H]1c1ncc(-c2ccc(-c3ccc(-c4cnc([C@@H]5CC6(CN5C(=O)[C@@H](NC(=O)OC)C(C)C)O[C@@H](C)[C@H](C)O6)[nH]4)cc3)cc2)[nH]1)C(C)C [Example 11, methyl [(1S)-1-({(2S)-2-[4-(4′-{2-[(2S,3S,8S)-2,3-dimethyl-7-((2S)-3-methyl-2-{[(methyloxy)carbonyl]amino}butanoyl)-1,4-dioxa-7-azaspiro[4.4]non-8-yl]-1H-imidazol-5-yl}-4-biphenylyl)-1H-imidazol-2-yl]-1-pyrrolidinyl}carbonyl)-2-methylpropyl]carbamate]?
Answer: EC50 [1]: 1.26 nM; EC50 [2]: 0.01 nM
